The values below come from patent US20020049223A1, “Quinoline and naphthyridine carboxylic acid antibacterials” (priority 1999, published 2002).

Molecules are shown by their SMILES. Counter-ions that a name gives are not always drawn.

Holding throughout (assay): Assay B: in vitro antibacterial activity, broth microdilution MIC (NCCLS)
Common to all, as to type: cell-based
In general terms: In broth dilution the organism is exposed to a series of concentrations in liquid medium.

Assay [1] has as its system Enterococcus faecalis PIU 1967. The settings on record: Table 2, Assay B, cation-adjusted Mueller Hinton broth, 35° C., 16 to 20 hr; code B = Enterococcus faecalis PIU 1967; unit assumed. As to the method: (§1) Assay B. Determination of Biological Activity In Vitro Assay of Antibacterial Activity
(§2) Representative compounds of the invention were assayed in vitro for antibacterial activity. The susceptibilities of aerobic, nonfastidious species were determined visually by broth microdilution as described by the National Committee for Clinical Laboratory Standards (NCCLS) (National Committee for Clinical Laboratory Standards. 1997. Methods for dilution antimicrobial susceptibility tests for bacteria that grow aerobically. Approved standard M7-A4. National Committee for Clinical Laboratory Standards. Wayne, Pa.). In brief, serial two-fold dilutions of test compounds were made in cation-adjusted Mueller Hinton broth at two-times the final concentration. Inocula were prepared from overnight cultures of test strains. Tests were inoculated with a suspension of bacteria in Mueller Hinton broth to achieve a final density of approximately 5×10^5 CFU/mL. Tests were incubated at 35° C. in ambient air for 16 to 20 hr. Minimum Inhibitory Concentrations (MICs) were determined as the lowest drug concentration completely inhibiting growth. Ciprofloxacin was included as a control. For testing S. pneumoniae, the cation-adjusted Mueller Hinton broth was supplemented with 3% lysed horse blood and the incubation period was extended to 20 to 24 hr. For testing H. influenzae, the cation-adjusted Mueller Hinton broth was supplemented with 5 g/L yeast extract, […] and 15 mg/L NAD and incubation was extended to 20 to 24 hr..

In assay [2] the test system is Escherichia coli JUHL. The settings on record: Table 2, Assay B, cation-adjusted Mueller Hinton broth, 35° C., 16 to 20 hr; code D = Escherichia coli JUHL; unit assumed. The method, then:
as §1, §2

In assay [3] the test system is Haemophilus influenzae DILL AMP R. The settings on record: Table 2, Assay B, Mueller Hinton broth with yeast extract, hematin and NAD, 20 to 24 hr; code E = Haemophilus influenzae DILL AMP R; unit assumed. As to the method: as §1, §2
Assay [4] relates to Staphylococcus aureus ATCC 6538P. The settings on record: Table 2, Assay B, cation-adjusted Mueller Hinton broth, 35° C., 16 to 20 hr; code A = Staphylococcus aureus ATCC 6538P; unit assumed. The method, then: as §1, §2
The subject of assay [5] is Streptococcus pneumoniae ATCC 6303. The settings on record: Table 2, Assay B, Mueller Hinton broth with 3% lysed horse blood, 20 to 24 hr; code F = Streptococcus pneumoniae ATCC 6303; unit assumed. As to the method: as §1, §2

For the molecule `COc1c(-c2cc3c(s2)CCCC3=NNC(C)=O)ccc2c(=O)c(C(=O)O)cn(C3CC3)c12` [Example 96, 7-((4E/Z)-4-(acetylhydrazono)-4,5,6,7-tetrahydro-1-benzothien-2-yl)-1-cyclopropyl-8-methoxy-4-oxo-1,4-dihydro-3-quinolinecarboxylic acid], the Antibacterial Activity (MIC's), B in assay [1] worked out at 0.5 µg/mL. This molecule also displayed an Antibacterial Activity (MIC's), D in assay [2] of 1 µg/mL. The Antibacterial Activity (MIC's), E in assay [3] was found to be 0.03 µg/mL. Further, the Antibacterial Activity (MIC's), A in assay [4] is under 0.004 µg/mL. In addition, the Antibacterial Activity (MIC's), F in assay [5] amounted to 0.03 µg/mL.

For the molecule `COc1c(-c2cc3c(s2)CCCC3NCc2ccccc2)ccc2c(=O)c(C(=O)O)cn(C3CC3)c12.Cl` (stereo not shown) [Example 97, 7-(4-(benzylamino)-4,5,6,7-tetrahydro-1-benzothien-2-yl)-1-cyclopropyl-8-methoxn-4-oxo-1,4-dihydro-3-quinolinecarboxylic acid hydrochloride], the Antibacterial Activity (MIC's), B in assay [1] was found to be 0.5 µg/mL. The same molecule gave an Antibacterial Activity (MIC's), D in assay [2] of 1 µg/mL. In addition, the Antibacterial Activity (MIC's), E in assay [3] was 0.25 µg/mL. Further, in assay [4], the Antibacterial Activity (MIC's), A amounted to 0.125 µg/mL. Further, the Antibacterial Activity (MIC's), F in assay [5] turned out to be 0.5 µg/mL.

On to `O=C(O)c1cn(C2CC2)c2c(OC(F)F)c(-c3cc4c(s3)CCCC4O)ccc2c1=O` (stereo not shown) [Example 99, 1-cyclopropyl-8-(difluoromethoxy)-7-(4-hydroxy-4,5,6,7-tetrahydro-1-benzothien-2-yl)-4-oxo-1,4-dihydro-3-quinolinecarboxylic acid], for which the Antibacterial Activity (MIC's), B in assay [1] is 0.125 µg/mL. This molecule also registered an Antibacterial Activity (MIC's), D in assay [2] of 0.25 µg/mL. The same molecule gave an Antibacterial Activity (MIC's), E in assay [3] of 0.015 µg/mL. In assay [4], the Antibacterial Activity (MIC's), A was 0.015 µg/mL. The molecule also had an Antibacterial Activity (MIC's), F in assay [5] of 0.06 µg/mL.

As to `COc1c(-c2cc3c(s2)CCCC3=NNC2=NCCN2)ccc2c(=O)c(C(=O)O)cn(C3CC3)c12` [Example 100, 1-cyclopropyl-7-((4E/Z)-4-(4,5-dihydro-1H-imidazol-2-ylhydrazono)-4,5,6,7-tetrahydro-1-benzothien-2-yl)-8-methoxv-4-oxo-1,4-dihydro-3-quinolinecarboxylic acid], in assay [1], the Antibacterial Activity (MIC's), B came to 0.5 µg/mL. In assay [2], this molecule showed an Antibacterial Activity (MIC's), D of 0.25 µg/mL. For the same molecule, in assay [3], the Antibacterial Activity (MIC's), E came out at 0.125 µg/mL. For the same molecule, the Antibacterial Activity (MIC's), A in assay [4] was 0.06 µg/mL. In addition, the Antibacterial Activity (MIC's), F in assay [5] was determined as 0.03 µg/mL.

In assay [1], `Cl.NC1CCCc2sc(-c3ccc4c(=O)c(C(=O)O)cn(C5CC5)c4c3OC(F)F)cc21` (stereo not shown) [Example 101, 7-(4-amino-4,5,6,7-tetrahydro-1-benzothien-2-yl)-1-cyclopropyl-8-(difluoromethoxy)-4-oxo-1,4-dihydro-3-quinolinecarboxylic acid hydrochloride] came in with an Antibacterial Activity (MIC's), B of 0.125 µg/mL. For the same molecule, the Antibacterial Activity (MIC's), D in assay [2] is 0.125 µg/mL. Also, the Antibacterial Activity (MIC's), E in assay [3] was found to be 0.015 µg/mL. The same molecule gave an Antibacterial Activity (MIC's), A in assay [4] of 0.03 µg/mL. Also, the Antibacterial Activity (MIC's), F in assay [5] was 0.03 µg/mL.

In assay [1], `COc1c(-c2cc3c(s2)S(=O)(=O)N(C)CC3O)ccc2c(=O)c(C(=O)O)cn(C3CC3)c12` (stereo not shown) [Example 102, 1-cyclopropyl-7-(4-hydroxy-2-methyl-1,1-dioxido-3,4-dihydro-2H-thieno[3,2-e][1,2]thiazin-6-yl)-8-methoxy-4-oxo-1,4-dihydro-3-quinolinecarboxylic acid] displayed an Antibacterial Activity (MIC's), B of 1 µg/mL. This molecule displayed an Antibacterial Activity (MIC's), D in assay [2] of 8 µg/mL. The Antibacterial Activity (MIC's), E in assay [3] came to 0.03 µg/mL. The same molecule showed an Antibacterial Activity (MIC's), A in assay [4] of 0.25 µg/mL. The molecule also yielded an Antibacterial Activity (MIC's), F in assay [5] of 0.5 µg/mL.

Regarding `COc1c(-c2cc3c(s2)CCCC3NCc2cccc(F)c2)ccc2c(=O)c(C(=O)O)cn(C3CC3)c12` (stereo not shown) [Example 104, 1-cyclopropyl-7-(4-((3-fluorobenzyl)amino)-4,5,6,7-tetrahydro-1-benzothien-2-yl)-8-methoxy-4-oxo-1,4-dihydro-3-quinolinecarboxylic acid hydrochloride], the Antibacterial Activity (MIC's), B in assay [1] was determined as 1 µg/mL. In addition, the Antibacterial Activity (MIC's), D in assay [2] came to 2 µg/mL. Moreover, the Antibacterial Activity (MIC's), E in assay [3] worked out at 0.25 µg/mL. The molecule further came in with an Antibacterial Activity (MIC's), A in assay [4] of 0.25 µg/mL. In addition, the Antibacterial Activity (MIC's), F in assay [5] amounted to 0.5 µg/mL.

`COc1c(-c2cc3c(s2)CCCC3=NN(C)C(N)=S)ccc2c(=O)c(C(=O)O)cn(C3CC3)c12` [Example 105, 7-((4E/Z)-4-[(aminocarbothioyl)(methyl)hydrazono)-4,5,6,7-tetrahydro-1-benzothien-2-yl)-1-cyclopropyl-8-methoxy-4-oxo-1 4-dihydro-3-quinolinecarboxylic acid] came in with an Antibacterial Activity (MIC's), B in assay [1] of 0.25 µg/mL. This molecule registered an Antibacterial Activity (MIC's), D in assay [2] of 1 µg/mL. For the same molecule, in assay [3], the Antibacterial Activity (MIC's), E came to 0.06 µg/mL. Further, in assay [4], the Antibacterial Activity (MIC's), A was 0.03 µg/mL. This molecule also had an Antibacterial Activity (MIC's), F in assay [5] of 0.03 µg/mL.

With `COc1c(-c2cc3c(s2)CCC(C)C3=O)ccc2c(=O)c(C(=O)O)cn(C3CC3)c12` (stereo not shown) [Example 106, 1-cyclopropyl-8-methoxy-7-(5-methyl-4-oxo-4,5,6,7-tetrahydro-1-benzothien-2-yl)-4-oxo-1,4-dihydro-3-quinolinecarboxylic acid], the Antibacterial Activity (MIC's), B in assay [1] worked out at 0.125 µg/mL. This molecule came in with an Antibacterial Activity (MIC's), D in assay [2] of 0.5 µg/mL. The molecule further had an Antibacterial Activity (MIC's), E in assay [3] of 0.06 µg/mL. In assay [4], this molecule came in with an Antibacterial Activity (MIC's), A of 0.08 µg/mL. Further, the Antibacterial Activity (MIC's), F in assay [5] was found to be 0.125 µg/mL.

`CNC1CCCc2sc(-c3ccc4c(=O)c(C(=O)O)cn(C5CC5)c4c3OC(F)F)cc21` (stereo not shown) [Example 107, 1-cyclopropyl-8-(difluoromethoxy)-7-(4-(methylamino)-4,5,6,7-tetrahydro-1-benzothien-2-yl)-4-oxo-1,4-dihydro-3-quinolinecarboxylic acid hydrochloride] displayed an Antibacterial Activity (MIC's), B in assay [1] of 0.5 µg/mL. Further, the Antibacterial Activity (MIC's), D in assay [2] turned out to be 0.25 µg/mL. Also, the Antibacterial Activity (MIC's), E in assay [3] was 0.06 µg/mL. In assay [4], this molecule showed an Antibacterial Activity (MIC's), A of 0.06 µg/mL. In assay [5], this molecule came in with an Antibacterial Activity (MIC's), F of 0.06 µg/mL.

In turn, `CNC1CCCc2sc(-c3nc4c(cc3F)c(=O)c(C(=O)O)cn4C3CC3)cc21` (stereo not shown) [Example 108, 1-cyclopropyl-6-fluoro-7-(4-(methylamino)-4,5,6,7-tetrahydro-1-benzothien-2-yl)-4-oxo-1,4-dihydro[1,8]naphthyridine-3-carboxylic acid hydrochloride] showed an Antibacterial Activity (MIC's), B in assay [1] of 1 µg/mL. In assay [2], this molecule yielded an Antibacterial Activity (MIC's), D of 0.03 µg/mL. The molecule further showed an Antibacterial Activity (MIC's), E in assay [3] of 0.008 µg/mL. In assay [4], this molecule showed an Antibacterial Activity (MIC's), A of 0.015 µg/mL. In assay [5], this molecule gave an Antibacterial Activity (MIC's), F of 0.25 µg/mL.

In the case of `COc1c(-c2cc3c(s2)S(=O)(=O)N(C)CC3N)ccc2c(=O)c(C(=O)O)cn(C3CC3)c12.Cl` (stereo not shown) [Example 109, 7-(4-amino-2-methyl-1,1-dioxido-3,4-dihydro-2H-thieno[3,2-e][1,2]thiazin-6-yl)-1-cyclopropyl-8-methoxy-4-oxo-1,4-dihydro-3-quinolinecarboxylic acid hydrochloride], the Antibacterial Activity (MIC's), B in assay [1] was found to be 2 µg/mL. The molecule further had an Antibacterial Activity (MIC's), D in assay [2] of 8 µg/mL. In assay [3], this molecule displayed an Antibacterial Activity (MIC's), E of 0.125 µg/mL. In addition, in assay [4], the Antibacterial Activity (MIC's), A worked out at 0.125 µg/mL. Further, the Antibacterial Activity (MIC's), F in assay [5] was 0.5 µg/mL.

As for `COc1c(-c2cc3c(s2)CCCC3CO)ccc2c(=O)c(C(=O)O)cn(C3CC3)c12` (stereo not shown) [Example 110, 1-cyclopropyl-7-(4-(hydroxymethyl)-4,5,6,7-tetrahydro-1-benzothien-2-yl)-8-methoxy-4-oxo-1,4-dihydro-3-quinolinecarboxylic acid], the Antibacterial Activity (MIC's), B in assay [1] turned out to be 0.06 µg/mL. In assay [2], this molecule gave an Antibacterial Activity (MIC's), D of 0.25 µg/mL. The same molecule yielded an Antibacterial Activity (MIC's), E in assay [3] of 0.015 µg/mL. In assay [4], the Antibacterial Activity (MIC's), A stood at 0.004 µg/mL. In assay [5], this molecule registered an Antibacterial Activity (MIC's), F of 0.06 µg/mL.

Molecule `CNC1CCc2sc(-c3ccc4c(=O)c(C(=O)O)cn(C5CC5)c4c3OC)cc2C1.Cl` (stereo not shown) [Example 125, 1-cyclopropyl-8-methoxy-7-(5-(methylamino)-4,5,6,7-tetrahydro-1-benzothien-2-yl)-4-oxo-1,4-dihydro-3-quinolinecarboxylic acid hydrochloride] registered an Antibacterial Activity (MIC's), B in assay [1] of 0.25 µg/mL. Moreover, the Antibacterial Activity (MIC's), D in assay [2] was found to be 0.125 µg/mL. In assay [3], this molecule came in with an Antibacterial Activity (MIC's), E of 0.03 µg/mL. The molecule further gave an Antibacterial Activity (MIC's), A in assay [4] of 0.004 µg/mL. For the same molecule, the Antibacterial Activity (MIC's), F in assay [5] came to 0.03 µg/mL.
